Test results from PubChem BioAssay (NCI).
Several values for one entry are separate records, joined by “and”; a condition that tells them apart may be missing. Identical values can stand only once.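 Cells were grown in 96-well plates and exposed to each compound for 48 hours at five concentrations; endpoints were interpolated linearly between bracketing concentrations, or set to the highest concentration if not reached. GI50 = concentration required for 50% inhibition of growth. TGI is the concentration that stops growth completely.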

What was measured:
Assay in all cases: NCI-60 cell line screen, 48 h
A549 NSCLC = tested on: A549 NSCLC
COLO 205 colon = tested on: COLO 205 colon
DU-145 prostate = tested on: DU-145 prostate
EKVX NSCLC = tested on: EKVX NSCLC
HCT-116 colon = tested on: HCT-116 colon
HCT-15 colon = tested on: HCT-15 colon
HL-60(TB) leukemia = tested on: HL-60(TB) leukemia
HOP-62 NSCLC = tested on: HOP-62 NSCLC
HOP-92 NSCLC = tested on: HOP-92 NSCLC
HS 578T breast = tested on: HS 578T breast
IGROV1 ovarian = tested on: IGROV1 ovarian
K-562 leukemia = tested on: K-562 leukemia
KM12 colon = tested on: KM12 colon
LOX IMVI melanoma = tested on: LOX IMVI melanoma
M14 melanoma = tested on: M14 melanoma
MCF7 breast = tested on: MCF7 breast
MDA-MB-435 = tested on: MDA-MB-435
MDA-N = tested on: MDA-N
MOLT-4 leukemia = tested on: MOLT-4 leukemia
NCI-H226 lung = tested on: NCI-H226 lung
NCI-H23 lung = tested on: NCI-H23 lung
NCI/ADR-RES ovarian = tested on: NCI/ADR-RES ovarian
OVCAR-3 ovarian = tested on: OVCAR-3 ovarian
OVCAR-4 ovarian = tested on: OVCAR-4 ovarian
OVCAR-5 ovarian = tested on: OVCAR-5 ovarian
OVCAR-8 ovarian = tested on: OVCAR-8 ovarian
PC-3 prostate = tested on: PC-3 prostate
RPMI-8226 leukemia = tested on: RPMI-8226 leukemia
SK-MEL-2 melanoma = tested on: SK-MEL-2 melanoma
SK-MEL-5 melanoma = tested on: SK-MEL-5 melanoma
SK-OV-3 ovarian = tested on: SK-OV-3 ovarian
SNB-19 CNS = tested on: SNB-19 CNS
SR leukemia = tested on: SR leukemia
SW-620 colon = tested on: SW-620 colon
T-47D breast = tested on: T-47D breast
TK-10 renal = tested on: TK-10 renal
U251 CNS = tested on: U251 CNS
UACC-257 melanoma = tested on: UACC-257 melanoma
UO-31 renal = tested on: UO-31 renal
786-0 renal = tested on: 786-0 renal
A498 renal = tested on: A498 renal
ACHN renal = tested on: ACHN renal
CAKI-1 renal = tested on: CAKI-1 renal
CCRF-CEM leukemia = tested on: CCRF-CEM leukemia
HCC-2998 colon = tested on: HCC-2998 colon
HT29 colon = tested on: HT29 colon
MDA-MB-231 breast = tested on: MDA-MB-231 breast
NCI-H460 lung = tested on: NCI-H460 lung
NCI-H522 lung = tested on: NCI-H522 lung
RXF 393 renal = tested on: RXF 393 renal
SF-268 CNS = tested on: SF-268 CNS
SF-295 CNS = tested on: SF-295 CNS
SF-539 CNS = tested on: SF-539 CNS
SN12C renal = tested on: SN12C renal
SNB-75 CNS = tested on: SNB-75 CNS
UACC-62 melanoma = tested on: UACC-62 melanoma
MALME-3M melanoma = tested on: MALME-3M melanoma
SK-MEL-28 melanoma = tested on: SK-MEL-28 melanoma

In the case of `CC(=O)OCC1OC(Sc2nc(-c3ccc(Cl)cc3)c(C#N)c(=O)n2C2OC(COC(C)=O)C(OC(C)=O)C(OC(C)=O)C2OC(C)=O)C(OC(C)=O)C(OC(C)=O)C1OC(C)=O` (stereo not drawn), the TGI (A549 NSCLC) is reported as greater than 100 µM, the TGI (COLO 205 colon) is reported as > 100 µM and 19.3 µM and the TGI (DU-145 prostate) is reported as > 100 µM and 25.3 µM. For the same compound, the TGI (EKVX NSCLC) was greater than 100 µM, the TGI (HCT-116 colon) was greater than 100 µM and the TGI (HCT-15 colon) was > 100 µM and 13.6 µM. For the same compound, the TGI (HL-60(TB) leukemia) was 8.82 µM, the TGI (HOP-62 NSCLC) was > 100 µM and 18.5 µM and the GI50 (HOP-92 NSCLC) was 2.13 µM. For the same compound, the TGI (HOP-92 NSCLC) was 9.15 µM, the TGI (HS 578T breast) was > 100 µM and 34.3 µM and the TGI (IGROV1 ovarian) was > 100 µM and 33.5 µM. The GI50 (K-562 leukemia) was 36.6 µM, the TGI (K-562 leukemia) was greater than 100 µM and the TGI (KM12 colon) was > 100 µM and 31 µM. The GI50 (LOX IMVI melanoma) was 26.9 µM and 8.49 µM, the TGI (LOX IMVI melanoma) was greater than 100 µM and the TGI (M14 melanoma) was greater than 100 µM. For the same compound, the TGI (MCF7 breast) was > 100 µM and 15.4 µM, the TGI (MDA-MB-435) was > 100 µM and 19.7 µM and the TGI (MDA-N) was > 100 µM and 13.2 µM. For the same compound, the TGI (MOLT-4 leukemia) was greater than 100 µM, the TGI (NCI-H226 lung) was > 100 µM and 12.1 µM and the TGI (NCI-H23 lung) was > 100 µM and 20 µM. The GI50 (NCI/ADR-RES ovarian) was > 100 µM and 10.2 µM, the TGI (NCI/ADR-RES ovarian) was greater than 100 µM and the TGI (OVCAR-3 ovarian) was > 100 µM and 24.8 µM. For the same compound, the TGI (OVCAR-4 ovarian) was 12.1 µM, the TGI (OVCAR-5 ovarian) was > 100 µM and 21.9 µM and the GI50 (OVCAR-8 ovarian) was > 100 µM and 17.2 µM. The TGI (OVCAR-8 ovarian) was greater than 100 µM, the TGI (PC-3 prostate) was > 100 µM and 24.4 µM and the TGI (RPMI-8226 leukemia) was greater than 100 µM. The GI50 (SK-MEL-2 melanoma) was > 100 µM and 17.4 µM, the TGI (SK-MEL-2 melanoma) was greater than 100 µM and the TGI (SK-MEL-5 melanoma) was > 100 µM and 12.8 µM. The TGI (SK-OV-3 ovarian) was > 100 µM and 11.2 µM, the GI50 (SNB-19 CNS) was > 100 µM and 10.7 µM and the TGI (SNB-19 CNS) was > 100 µM and 23.1 µM. The TGI (SR leukemia) was 99.8 µM, the TGI (SW-620 colon) was greater than 100 µM and the GI50 (T-47D breast) was 89.8 µM and 17.7 µM. The TGI (T-47D breast) was greater than 100 µM, the GI50 (TK-10 renal) was > 100 µM and 20.2 µM and the TGI (TK-10 renal) was > 100 µM and 47.8 µM. The TGI (U251 CNS) was greater than 100 µM, the TGI (UACC-257 melanoma) was > 100 µM and 10.8 µM and the GI50 (UO-31 renal) was 27.7 µM and 55.9 µM. It also gave a TGI (UO-31 renal) greater than 100 µM.
For `c1ccc(-c2cc(-c3cccs3)c(-c3cccs3)s2)cc1`, the TGI (786-0 renal) was greater than 100 µM, the TGI (A498 renal) was greater than 100 µM and the TGI (ACHN renal) was greater than 100 µM. For the same compound, the TGI (CAKI-1 renal) was greater than 100 µM, the TGI (CCRF-CEM leukemia) was 57.9 µM and the TGI (COLO 205 colon) was greater than 100 µM. It also gave a TGI (DU-145 prostate) greater than 100 µM, a TGI (EKVX NSCLC) greater than 100 µM and a TGI (HCC-2998 colon) of 67.8 µM. It also gave a TGI (HCT-116 colon) greater than 100 µM, a TGI (HCT-15 colon) of 70.1 µM and a TGI (HL-60(TB) leukemia) of 88.5 µM. For the same compound, the TGI (HOP-62 NSCLC) was greater than 100 µM, the TGI (HOP-92 NSCLC) was greater than 100 µM and the TGI (HS 578T breast) was greater than 100 µM. The TGI (HT29 colon) was greater than 100 µM, the TGI (IGROV1 ovarian) was greater than 100 µM and the TGI (KM12 colon) was 32.9 µM. For the same compound, the TGI (M14 melanoma) was 54.5 µM, the TGI (MCF7 breast) was 41 µM and the TGI (MDA-MB-231 breast) was greater than 100 µM. It also gave a TGI (MDA-MB-435) of 75.5 µM, a TGI (MDA-N) greater than 100 µM and a TGI (MOLT-4 leukemia) of 63.1 µM. The TGI (NCI-H226 lung) was greater than 100 µM, the TGI (NCI-H23 lung) was 60.2 µM and the TGI (NCI-H460 lung) was greater than 100 µM. For the same compound, the TGI (NCI-H522 lung) was 64.8 µM, the TGI (NCI/ADR-RES ovarian) was greater than 100 µM and the TGI (OVCAR-3 ovarian) was greater than 100 µM. It also gave a TGI (OVCAR-4 ovarian) of 62.6 µM, a TGI (OVCAR-5 ovarian) greater than 100 µM and a TGI (OVCAR-8 ovarian) greater than 100 µM. The TGI (RPMI-8226 leukemia) was 79 µM, the TGI (RXF 393 renal) was 47.3 µM and the TGI (SF-268 CNS) was greater than 100 µM. For the same compound, the TGI (SF-295 CNS) was greater than 100 µM, the TGI (SF-539 CNS) was greater than 100 µM and the TGI (SK-MEL-5 melanoma) was greater than 100 µM. For the same compound, the TGI (SK-OV-3 ovarian) was greater than 100 µM, the TGI (SN12C renal) was greater than 100 µM and the TGI (SNB-75 CNS) was greater than 100 µM. The TGI (SR leukemia) was 52.3 µM, the TGI (SW-620 colon) was greater than 100 µM and the TGI (T-47D breast) was 58.4 µM. For the same compound, the TGI (TK-10 renal) was greater than 100 µM, the TGI (U251 CNS) was greater than 100 µM and the TGI (UACC-257 melanoma) was greater than 100 µM. For the same compound, the TGI (UACC-62 melanoma) was greater than 100 µM and the TGI (UO-31 renal) was 72.3 µM.
`S=C(/C=C1\SC(=Nc2ccccc2)C(=Nc2ccccc2)N1c1ccccc1)Nc1ccccc1` was tested, and the TGI (A498 renal) was greater than 100 µM, the TGI (CAKI-1 renal) was greater than 100 µM and the TGI (CCRF-CEM leukemia) was greater than 100 µM. The TGI (COLO 205 colon) was greater than 100 µM, the TGI (DU-145 prostate) was greater than 100 µM and the TGI (HCT-116 colon) was greater than 100 µM. The TGI (HCT-15 colon) was greater than 100 µM, the TGI (HL-60(TB) leukemia) was greater than 100 µM and the TGI (HOP-62 NSCLC) was greater than 100 µM. For the same compound, the TGI (HOP-92 NSCLC) was greater than 100 µM, the TGI (HS 578T breast) was greater than 100 µM and the TGI (HT29 colon) was greater than 100 µM. The TGI (IGROV1 ovarian) was greater than 100 µM, the TGI (KM12 colon) was greater than 100 µM and the TGI (M14 melanoma) was greater than 100 µM. It also gave a TGI (MALME-3M melanoma) greater than 100 µM, a TGI (MDA-MB-231 breast) greater than 100 µM and a TGI (MDA-MB-435) greater than 100 µM. The TGI (MDA-N) was greater than 100 µM, the TGI (MOLT-4 leukemia) was greater than 100 µM and the TGI (NCI-H23 lung) was greater than 100 µM. For the same compound, the TGI (NCI-H460 lung) was greater than 100 µM, the TGI (NCI-H522 lung) was greater than 100 µM and the TGI (NCI/ADR-RES ovarian) was greater than 100 µM. It also gave a TGI (OVCAR-3 ovarian) greater than 100 µM, a TGI (OVCAR-8 ovarian) greater than 100 µM and a TGI (PC-3 prostate) greater than 100 µM. For the same compound, the TGI (RPMI-8226 leukemia) was greater than 100 µM, the TGI (SF-295 CNS) was greater than 100 µM and the TGI (SK-MEL-2 melanoma) was greater than 100 µM. The TGI (SK-MEL-28 melanoma) was greater than 100 µM, the TGI (SK-MEL-5 melanoma) was greater than 100 µM and the TGI (SK-OV-3 ovarian) was greater than 100 µM. It also gave a TGI (SN12C renal) greater than 100 µM, a TGI (SNB-75 CNS) greater than 100 µM and a TGI (SR leukemia) greater than 100 µM. For the same compound, the TGI (T-47D breast) was greater than 100 µM, the TGI (U251 CNS) was greater than 100 µM and the TGI (UACC-62 melanoma) was greater than 100 µM.
